Data as given in the supplement of paper PMC10307832.

Tests used:
Test in all cases: relative viability (nuclei count vs DMSO), 5 days (fraction); higher = more cells survive
RO-3306 + Crizotinib = compound: C1=CC2=C(C=CC(=C2)C=C3C(=O)NC(=NCC4=CC=CS4)S3)N=C1 [RO-3306] + C[C@@H](Oc1cc(-c2cnn(C3CCNCC3)c2)cnc1N)c1c(Cl)ccc(F)c1Cl [Crizotinib] (partner 1 µM)
In short: (§1)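 Relative viability divides the nuclei count in treated wells by that in vehicle wells. Lung cancer cell lines were seeded in 1536-well plates, dosed by pin tool the next day, and fixed and stained after 5 days in one step with final 0.05% Triton X-100, 1% formaldehyde and 1 ug/ml Hoechst. Dosing was a single drug or a fixed anchor-drug dose plus five library-drug doses (not always all listed) in √10 steps, and values are medians of duplicate plates imaged at 4×.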

[1] = compound: O=S(=O)(c1ccccc1)N(CC(F)(F)F)c1ccc(C(O)(C(F)(F)F)C(F)(F)F)cc1 + CC(=O)c1c(C)c2cnc(Nc3ccc(N4CCNCC4)cn3)nc2n(C2CCCC2)c1=O [Palbociclib] (partner 0.5 µM)
In short: as §1

[2] = compound: O=S(=O)(c1ccccc1)N(CC(F)(F)F)c1ccc(C(O)(C(F)(F)F)C(F)(F)F)cc1 + CCNC(=O)c1noc(-c2cc(C(C)C)c(O)cc2O)c1-c1ccc(CN2CCOCC2)cc1 [Luminespib] (partner 0.01 µM)
In short: as §1

[3] = compound: O=S(=O)(c1ccccc1)N(CC(F)(F)F)c1ccc(C(O)(C(F)(F)F)C(F)(F)F)cc1 + CS(=O)(=O)CCNCc1ccc(-c2ccc3ncnc(Nc4ccc(OCc5cccc(F)c5)c(Cl)c4)c3c2)o1 [Lapatinib] (partner 2 µM)
In short: as §1

[4] = compound: O=S(=O)(c1ccccc1)N(CC(F)(F)F)c1ccc(C(O)(C(F)(F)F)C(F)(F)F)cc1 + N=C(N)NC(=N)NCCc1ccccc1 [Phenformin] (partner 250 µM)
In short: as §1

[5] = compound: O=S(=O)(c1ccccc1)N(CC(F)(F)F)c1ccc(C(O)(C(F)(F)F)C(F)(F)F)cc1 + NC(=O)Nc1cc(-c2cccc(F)c2)sc1C(=O)N[C@H]1CCCNC1 [AZD7762] (partner 0.2 µM)
In short: as §1

Cell Line	relative viability (RO-3306 + Crizotinib; first compound 0.01 µM)	relative viability (RO-3306 + Crizotinib; first compound 0.03162 µM)	relative viability (RO-3306 + Crizotinib; first compound 0.1 µM)	relative viability (RO-3306 + Crizotinib; first compound 0.3162 µM)	relative viability (RO-3306 + Crizotinib; first compound 1 µM)	relative viability ([1]; first compound 0.8 µM)	relative viability ([1]; first compound 2.53 µM)	relative viability ([1]; first compound 8 µM)	relative viability ([2]; first compound 0.8 µM)	relative viability ([2]; first compound 2.53 µM)	relative viability ([2]; first compound 8 µM)	relative viability ([3]; first compound 0.8 µM)	relative viability ([3]; first compound 2.53 µM)	relative viability ([3]; first compound 8 µM)	relative viability ([4]; first compound 0.8 µM)	relative viability ([4]; first compound 2.53 µM)	relative viability ([4]; first compound 8 µM)	relative viability ([5]; first compound 0.8 µM)	relative viability ([5]; first compound 2.53 µM)	relative viability ([5]; first compound 8 µM)
HCC-15	1.01	0.707	0.848	0.925	0.763	0.703	0.567	0.642	0.299	0.233	0.245	0.933	0.866	0.748	0.469	0.405	0.422	1.18	1.17	1.16
HCC-44	0.825	0.83	0.881	0.835	0.818	0.982	0.913	0.903	–	1.13	1.08	1.07	1.04	0.998	0.198	0.185	0.185	1.04	0.988	0.994
NCI-H2170	1.34	0.758	1.15	1.24	1.13	0.433	0.353	0.356	0.855	0.474	0.489	0.276	0.299	0.288	0.379	0.348	0.344	0.994	0.817	0.961
NCI-H727	1.33	0.781	0.837	1	0.964	0.621	0.623	0.618	0.389	0.292	0.358	0.844	0.646	0.738	0.568	0.378	0.469	0.549	0.604	0.526
NCI-H522	–	–	–	–	–	1.01	1.14	0.913	1.39	1.27	1.07	–	–	–	0.721	0.736	0.727	1.13	0.824	0.859
EPLC-272H	0.948	0.841	0.904	1.03	0.532	0.357	0.286	0.261	0.166	0.497	0.265	1.05	0.818	0.924	0.273	0.304	0.269	0.226	0.203	0.203
NCI-H1437	1.13	0.682	0.988	1.01	1.03	0.308	0.268	0.304	1.12	0.903	0.831	0.861	0.651	0.622	0.297	0.239	0.342	1.08	0.995	0.849
CAL-12T	0.57	0.49	0.531	0.63	0.508	0.318	0.33	0.412	0.38	0.251	0.354	–	0.531	0.592	0.512	0.471	0.464	0.482	0.566	0.522
LCLC-97TM1	–	0.379	0.313	0.338	0.31	–	0.206	0.236	0.716	0.744	0.682	1.09	0.653	0.71	0.448	0.402	0.419	–	0.241	0.234
LXF-289	0.846	0.817	0.808	0.726	0.76	0.574	0.502	0.534	0.858	0.559	0.641	0.797	0.775	0.758	0.504	0.475	0.463	0.981	0.937	0.974
HCC-366	0.566	0.611	0.486	0.603	0.522	0.649	0.379	0.239	–	–	–	1.29	1.13	0.951	0.693	0.568	0.48	0.277	0.317	0.14
NCI-H1355	1.21	0.947	1.1	1.12	1.14	0.377	0.42	0.359	0.781	0.756	0.759	1.04	0.961	0.926	0.467	0.397	0.438	0.789	0.733	0.703
H3255	0.926	0.836	0.761	0.916	0.642	0.319	0.313	0.28	0.734	0.753	0.767	0.249	0.231	0.223	0.382	0.373	0.393	0.787	0.666	0.76
ChaGo-K-1	1.2	1.03	1.14	0.858	0.818	1	0.895	0.877	0.573	0.719	0.706	–	–	–	0.517	0.52	0.474	0.952	0.888	0.791
BEN	0.834	0.768	0.86	0.906	0.813	0.506	0.504	0.454	0.343	0.289	0.182	0.67	0.684	0.629	0.262	0.249	0.283	0.724	0.717	0.689
NCI-H2342	–	–	–	–	–	0.592	0.545	0.502	0.809	0.782	0.628	–	–	–	0.606	0.599	0.48	0.527	0.559	0.477
NCI-H1734	0.714	0.656	0.694	0.624	0.623	0.348	0.363	0.326	0.191	0.217	0.204	1.24	1.13	0.934	0.562	0.45	0.354	0.617	0.67	0.343

Cell Line	relative viability (RO-3306 + Crizotinib; first compound 0.01 µM)	relative viability (RO-3306 + Crizotinib; first compound 0.03162 µM)	relative viability (RO-3306 + Crizotinib; first compound 0.1 µM)	relative viability (RO-3306 + Crizotinib; first compound 0.3162 µM)	relative viability (RO-3306 + Crizotinib; first compound 1 µM)	relative viability ([1]; first compound 0.8 µM)	relative viability ([1]; first compound 2.53 µM)	relative viability ([1]; first compound 8 µM)	relative viability ([2]; first compound 0.8 µM)	relative viability ([2]; first compound 2.53 µM)	relative viability ([2]; first compound 8 µM)	relative viability ([3]; first compound 0.8 µM)	relative viability ([3]; first compound 2.53 µM)	relative viability ([3]; first compound 8 µM)	relative viability ([4]; first compound 0.8 µM)	relative viability ([4]; first compound 2.53 µM)	relative viability ([4]; first compound 8 µM)	relative viability ([5]; first compound 0.8 µM)	relative viability ([5]; first compound 2.53 µM)	relative viability ([5]; first compound 8 µM)
LC-2-ad	0.404	0.416	0.397	0.425	0.368	0.53	0.501	0.422	0.898	0.892	0.864	1.04	0.876	0.99	0.626	0.584	0.633	0.89	0.779	0.702
NCI-H1651	0.865	0.834	0.88	0.881	0.84	0.555	0.503	0.5	0.995	0.871	0.732	0.9	0.821	0.847	0.358	0.292	0.268	0.471	0.449	0.39
NCI-H838	0.957	0.765	0.837	0.93	0.607	0.241	0.244	0.276	0.24	0.257	0.299	1.23	0.947	1.06	0.656	0.56	0.627	0.998	0.894	0.871
201T	1.07	1.03	0.998	0.992	1.02	0.365	0.354	0.371	1.05	0.887	0.975	1.01	0.949	1.03	0.451	0.41	0.503	0.797	0.617	0.637
HOP-62	1.2	1.09	0.973	1.05	0.891	0.408	0.3	0.355	0.903	0.907	0.862	1.18	0.812	0.798	0.646	0.533	0.427	0.649	0.517	0.598
PC-3 [JPC-3]	1.03	0.971	0.965	1.03	0.951	–	0.381	0.532	0.654	0.717	0.679	0.482	0.421	0.452	0.441	0.551	0.501	–	0.763	0.75
ABC-1	1.21	0.85	1.12	1.18	1.44	–	0.656	0.714	0.746	0.571	0.519	1.45	1.21	1.26	0.238	0.246	0.335	0.709	1.64	1.2
NCI-H1792	1.25	–	0.989	0.985	0.529	0.614	0.549	0.453	0.419	0.359	0.269	0.932	0.783	0.665	0.305	0.267	0.204	0.841	0.616	0.441
NCI-H1915	1.07	0.783	0.882	0.903	0.876	0.46	0.577	0.525	0.813	0.776	0.786	1.05	0.995	1.02	0.373	0.309	0.408	0.712	0.731	0.682
PC-14	0.977	0.841	1.03	0.864	0.836	0.345	0.254	0.198	0.153	0.132	0.19	0.26	0.191	0.223	0.309	0.357	0.447	0.216	0.228	0.216
NCI-H1793	–	–	–	–	–	0.258	0.22	0.258	0.162	0.149	0.172	0.675	0.471	0.522	0.447	0.332	0.285	0.409	0.426	0.246
SW 900	–	–	–	–	–	0.409	0.421	0.5	0.181	0.192	0.172	–	–	–	0.649	0.34	0.437	0.609	0.53	0.709
NCI-H1395	–	–	–	–	–	0.642	0.627	0.603	0.75	0.701	0.714	1.1	0.993	1.13	0.438	0.465	0.482	0.319	0.416	0.429
LCLC-103H	1.1	1.01	1.01	1.05	0.951	0.503	0.523	0.488	1.07	0.862	0.845	–	–	–	0.367	0.297	0.318	0.841	0.826	0.948
HCC-78	0.357	0.324	0.369	0.372	0.335	0.522	0.445	0.475	–	–	–	0.61	0.592	0.614	0.631	0.612	0.581	0.647	0.552	0.535
NCI-H441	0.824	0.424	0.591	0.867	0.485	0.212	0.16	0.211	0.317	0.37	0.372	–	–	–	1.16	0.905	0.813	1.34	1.2	0.996
